US20040157930A1, “Histone deacetylase enzyme-inhibiting derivatives of hydroxamic acid as new cytokine synthesis-inhibiting anti-inflammatory drugs” (priority 2001, published 2004)

Key:
DSS-induced colitis = assay: Dextran-induced colitis; assay type: in vivo, C57BL/6 mice; conditions: for Complete clinical score: 0 (healthy) to 4; for Weight: in g; for Bleeding / Stool consistency as score: score 0-4; for Colon length: post mortem day 10
Protocol: Female, 8 week-old C57BL/6 mice (The Jackson Laboratories, Bar Habor, Me.) weighing 20-22 g were used in this study. The animals were housed in rooms at a controlled temperature and a 12 h day/night rhythm. They were fed standard mice chow pellets ad libitum, had free access to tap water supplied in bottles, and were acclimatized to the conditions at least seven days before they were used in experiments. Mice were killed by cervical dislocation under isoflurane anesthesia (Fort Dodge, Iowa City, Iowa).
; molecular weight 40 kDa; ICN, Aurora, Ohio) dissolved in sterile, distilled water ad libitum from day one to five followed by a five day observation period. […]. Body weights, occult blood or the presence of gross blood per rectum, and stool consistency were determined daily. Two investigators blinded to the protocol assessed the clinical score (table 1). Weight loss <1% compared to day 1 was counted as 0 points, weight loss of 1 to <5% as 1 point, 5 to <9.9% as 2 points, 10 to 20% as 3 points and more than 20% as 4 points. […] Bleeding was scored 0 points for no blood in hemoccult, 2 points for positive hemoccult, and 4 points for gross bleeding. These scores (body weight, stool consistency, rectal bleeding) were added and divided by 3 resulting in a total clinical score ranging from 0 (healthy) to 4 (maximal activity of colitis).
Post mortem (on day 10), the entire colon was removed from the caecum to the anus and the colon length was measured as an indirect marker of inflammation.

[1] = test system: Con A-induced liver injury; assay: Con A-induced liver injury, serum ALT; assay type: in vivo, C57B16 mice; conditions: single dose 50 mg/kg i.p. 1 h before Con A i.v.; vehicle 15.190±2.580
Protocol: After 24 h, serum amino-alanine transferase was measured. Intravenous injection of Con A results in hepatic cell death within 12-24 h with markedly elevated serum levels of hepatic enzymes such as alanine amino transaminase (ALT).

IFNγ = IFNγ synthesis by PBMCs stimulated with IL-12 and IL-18 (ELISA); assay type: cell-based; conditions: Homo sapiens; PBMC, IL-12 10 ng/ml + IL-18 20 ng/ml, 48 h; read-out: IFNγ (from IL-12 + IL-18) IC50
Protocol: Cytokine IFNγ is produced by the T lymphocytes following their stimulation by pro-inflammatory cytokines, especially IL-12 and IL-18 (Dinarello C. A. and Moldawer L. L. Proinflammatory and anti-inflammatory cytokines in rheumatoid arthritis. A primer for clinicians. 2nd Edition, Amgen Inc., 2000).
At the end, the cells were stimulated for 48 hours in the presence of the compound by simultaneous addition of recombinant IL-12 (10 ng/ml) and recombinant IL-18 (20 ng/ml). The quantity of IFNγ produced was determined with a commercial ELISA assay.

IL-12 (p70) = assay: Inhibition of IL-12 production by cultured monocytes (ELISA); assay type: cell-based; conditions: nonadherent human monocytes
Protocol: Venous blood was obtained from consenting adults and separated over Ficoll-Hypaque. The PBMC fraction was washed and adjusted to five million cells per ml. […] The cells were stimulated with LPS, soluble OKT3, or cytokines, and after 24 or 48 h At 37° C. the supernatant was removed and frozen for cytokine assays. Monocytes were isolated by centrifugation over Percoll, washed, suspended in RPMI with 10% FCS, and aliquoted at 2 million cells per ml in Petriperm Teflon-coated culture dishes (Sigma). The ELISA for human IL-12 (p70) was purchased from Endogen (Woburn, Mass.).

[2] = DSS + SAHA 10 mg/kg p.o. daily, day 1
[3] = DSS + SAHA 10 mg/kg p.o. daily, day 2
[4] = DSS + SAHA 10 mg/kg p.o. daily, day 3
[5] = DSS + SAHA 10 mg/kg p.o. daily, day 4
[6] = DSS + SAHA 10 mg/kg p.o. daily, day 5
[7] = DSS + SAHA 10 mg/kg p.o. daily, day 6
[8] = DSS + SAHA 10 mg/kg p.o. daily, day 7
[9] = DSS + SAHA 10 mg/kg p.o. daily, day 8
[10] = DSS + SAHA 10 mg/kg p.o. daily, day 9
[11] = DSS + SAHA 10 mg/kg p.o. daily, day 10
[12] = SAHA 10 mg/kg p.o. daily without DSS, day 1
[13] = SAHA 10 mg/kg p.o. daily without DSS, day 2
[14] = SAHA 10 mg/kg p.o. daily without DSS, day 3
[15] = SAHA 10 mg/kg p.o. daily without DSS, day 4
[16] = SAHA 10 mg/kg p.o. daily without DSS, day 5
[17] = SAHA 10 mg/kg p.o. daily without DSS, day 6
[18] = SAHA 10 mg/kg p.o. daily without DSS, day 7
[19] = SAHA 10 mg/kg p.o. daily without DSS, day 8
[20] = SAHA 10 mg/kg p.o. daily without DSS, day 9
[21] = SAHA 10 mg/kg p.o. daily without DSS, day 10

`O=C(CCCCCCC(=O)Nc1ccccc1)NO` [SAHA, suberoylanilide hydroxamic acid] was tested, and the Complete clinical score (DSS-induced colitis; [2]) was 0.0 ± 0.0, the Weight (DSS-induced colitis; [2]) was 19.1 ± 0.2 and the Bleeding (DSS-induced colitis; [2]) was 0.0 ± 0.0. The “Stool consistency as score” value (DSS-induced colitis; [2]) was 0.0 ± 0.0, the Complete clinical score (DSS-induced colitis; [3]) was 0.0 ± 0.0 and the Weight (DSS-induced colitis; [3]) was 18.8 ± 0.2. For the same molecule, the Bleeding (DSS-induced colitis; [3]) was 0.0 ± 0.0, the “Stool consistency as score” value (DSS-induced colitis; [3]) was 0.0 ± 0.0 and the Complete clinical score (DSS-induced colitis; [4]) was 0.1 ± 0.1. The Weight (DSS-induced colitis; [4]) was 19.1 ± 0.3, the Bleeding (DSS-induced colitis; [4]) was 0.0 ± 0.0 and the “Stool consistency as score” value (DSS-induced colitis; [4]) was 0.0 ± 0.0. The Complete clinical score (DSS-induced colitis; [5]) was 0.2 ± 0.1, the Weight (DSS-induced colitis; [5]) was 18.4 ± 0.4 and the Bleeding (DSS-induced colitis; [5]) was 0.0 ± 0.0. For the same molecule, the “Stool consistency as score” value (DSS-induced colitis; [5]) was 0.0 ± 0.0, the Complete clinical score (DSS-induced colitis; [6]) was 0.7 + 0.3 and the Weight (DSS-induced colitis; [6]) was 18.4 ± 0.4. The Bleeding (DSS-induced colitis; [6]) was 1.2 ± 0.4, the “Stool consistency as score” value (DSS-induced colitis; [6]) was 0.8 ± 0.4 and the Complete clinical score (DSS-induced colitis; [7]) was 1.3 ± 0.3. For the same molecule, the Weight (DSS-induced colitis; [7]) was 18.7 ± 0.3, the Bleeding (DSS-induced colitis; [7]) was 2.4 ± 0.4 and the “Stool consistency as score” value (DSS-induced colitis; [7]) was 0.8 ± 0.4. For the same molecule, the Complete clinical score (DSS-induced colitis; [8]) was 1.5 ± 0.1, the Weight (DSS-induced colitis; [8]) was 18.0 ± 0.4 and the Bleeding (DSS-induced colitis; [8]) was 2.0 ± 0.0. For the same molecule, the “Stool consistency as score” value (DSS-induced colitis; [8]) was 2.0 ± 0.0, the Complete clinical score (DSS-induced colitis; [9]) was 1.9 ± 0.1 and the Weight (DSS-induced colitis; [9]) was 16.9 ± 0.3. For the same molecule, the Bleeding (DSS-induced colitis; [9]) was 1.6 ± 0.4, the “Stool consistency as score” value (DSS-induced colitis; [9]) was 2.0 ± 0.0 and the Complete clinical score (DSS-induced colitis; [10]) was 1.5 ± 0.4. For the same molecule, the Weight (DSS-induced colitis; [10]) was 16.6 ± 0.4, the Bleeding (DSS-induced colitis; [10]) was 1.2 ± 0.4 and the “Stool consistency as score” value (DSS-induced colitis; [10]) was 1.2 ± 0.4. It also gave a Complete clinical score (DSS-induced colitis; [11]) of 1.3 ± 0.4, a Weight (DSS-induced colitis; [11]) of 16.6 ± 0.4 and a Bleeding (DSS-induced colitis; [11]) of 0.8 ± 0.4. For the same molecule, the “Stool consistency as score” value (DSS-induced colitis; [11]) was 1.2 ± 0.4, the Colon length (DSS-induced colitis; DSS + SAHA 10 mg/kg p.o. daily, DSS + water 7.6 ± 0.2) was 9.2 ± 0.2 cm and the Complete clinical score (DSS-induced colitis; [12]) was 0.0 ± 0.0. The Weight (DSS-induced colitis; [12]) was 18.9 ± 0.3, the Bleeding (DSS-induced colitis; [12]) was 0.0 ± 0.0 and the “Stool consistency as score” value (DSS-induced colitis; [12]) was 0.0 ± 0.0. The Complete clinical score (DSS-induced colitis; [13]) was 0.0 ± 0.0, the Weight (DSS-induced colitis; [13]) was 18.8 ± 0.4 and the Bleeding (DSS-induced colitis; [13]) was 0.0 ± 0.0. For the same molecule, the “Stool consistency as score” value (DSS-induced colitis; [13]) was 0.0 ± 0.0, the Complete clinical score (DSS-induced colitis; [14]) was 0.0 ± 0.0 and the Weight (DSS-induced colitis; [14]) was 18.9 ± 0.2. For the same molecule, the Bleeding (DSS-induced colitis; [14]) was 0.0 ± 0.0, the “Stool consistency as score” value (DSS-induced colitis; [14]) was 0.0 ± 0.0 and the Complete clinical score (DSS-induced colitis; [15]) was 0.0 ± 0.0. For the same molecule, the Weight (DSS-induced colitis; [15]) was 18.9 ± 0.3, the Bleeding (DSS-induced colitis; [15]) was 0.0 ± 0.0 and the “Stool consistency as score” value (DSS-induced colitis; [15]) was 0.0 ± 0.0. For the same molecule, the Complete clinical score (DSS-induced colitis; [16]) was 0.0 ± 0.0, the Weight (DSS-induced colitis; [16]) was 19.0 ± 0.1 and the Bleeding (DSS-induced colitis; [16]) was 0.0 ± 0.0. The “Stool consistency as score” value (DSS-induced colitis; [16]) was 0.0 ± 0.0, the Complete clinical score (DSS-induced colitis; [17]) was 0.0 ± 0.0 and the Weight (DSS-induced colitis; [17]) was 19.0 ± 0.3. For the same molecule, the Bleeding (DSS-induced colitis; [17]) was 0.0 ± 0.0, the “Stool consistency as score” value (DSS-induced colitis; [17]) was 0.0 ± 0.0 and the Complete clinical score (DSS-induced colitis; [18]) was 0.0 ± 0.0. The Weight (DSS-induced colitis; [18]) was 18.9 ± 0.1, the Bleeding (DSS-induced colitis; [18]) was 0.0 ± 0.0 and the “Stool consistency as score” value (DSS-induced colitis; [18]) was 0.0 ± 0.0. For the same molecule, the Complete clinical score (DSS-induced colitis; [19]) was 0.0 ± 0.0, the Weight (DSS-induced colitis; [19]) was 19.0 ± 0.3 and the Bleeding (DSS-induced colitis; [19]) was 0.0 ± 0.0. The “Stool consistency as score” value (DSS-induced colitis; [19]) was 0.0 ± 0.0, the Complete clinical score (DSS-induced colitis; [20]) was 0.0 ± 0.1 and the Weight (DSS-induced colitis; [20]) was 19.1 ± 0.1. The Bleeding (DSS-induced colitis; [20]) was 0.0 ± 0.0, the “Stool consistency as score” value (DSS-induced colitis; [20]) was 0.0 ± 0.0 and the Complete clinical score (DSS-induced colitis; [21]) was 0.0 ± 0.0. The Weight (DSS-induced colitis; [21]) was 19.1 ± 0.2, the Bleeding (DSS-induced colitis; [21]) was 0.0 ± 0.0 and the “Stool consistency as score” value (DSS-induced colitis; [21]) was 0.0 ± 0.0. For the same molecule, the Colon length (DSS-induced colitis; SAHA 10 mg/kg p.o. daily without DSS, water 10.5 ± 0.3) was 10.1 ± 0.2 cm, the “effect on dextran-induced colitis (overall conclusion)” value (DSS-induced colitis; SAHA 10 mg/kg p.o. daily, days 1 to 10) was “effectively counteracts dextran-induced colitis” and the “24-h level of serum ALT (mean±SE)” value [1] was 8.144±2.091 units/liter. For the same molecule, the IC50 (IFNγ) was 740 nM, the “reduction in LPS/IFN-γ-induced IL-12 production” value (IL-12 (p70); 200 nM) was 55% and the “reduction in LPS/IFN-γ-induced IL-12 production” value (IL-12 (p70); 400 nM) was 86%.
